In PubChem BioAssay AID1963853 (Molecular Pharmacology Branch, DTP, NCI, 2024):

Tested on: 266295-075-R-J1-PDC spheroid viability
Assay: Anticancer human tumor 266295-075-R-J1-PDC patient-derived head and neck squamous carcinoma cell line growth inhibition [POLQ]
Conditions: spheroids with HUVEC and MSC; for IC50: curve of first compound; for viability, T/C: stronger effect = lower value
In short: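 PDC + HUVEC + MSC complex spheroids; POLQ inhibitors ± partner drugs; top conc. at/near clinical Cmax, else 10 microM (SN-38 1 microM), half-log dilutions; 37 degrees C, 5% CO2.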

[1] = second compound 0.0316 µM, first compound 0.0316 µM
[2] = second compound 0.0316 µM, first compound 0.1 µM
[3] = second compound 0.1 µM, first compound 0.0316 µM
[4] = second compound 0.1 µM, first compound 0.1 µM
[5] = second compound 0.316 µM, first compound 0.0316 µM
[6] = second compound 0.316 µM, first compound 0.1 µM
[7] = second compound 1 µM, first compound 0.0316 µM
[8] = second compound 1 µM, first compound 0.1 µM
[9] = second compound 3.16 µM, first compound 0.0316 µM
[10] = second compound 3.16 µM, first compound 0.1 µM
[11] = second compound 10 µM, first compound 0.0316 µM
[12] = second compound 10 µM, first compound 0.1 µM
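Also: spheroids exposed to compounds for seven days before readout.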

## O=C(c1cc(Cc2n[nH]c(=O)c3ccccc23)ccc1F)N1CCN(C(=O)C2CC2)CC1 + Nc1ccc(C#CCN(C(=O)Cc2ncc(C(F)(F)F)cc2C(F)(F)F)c2ccc(F)cc2)nn1
Second compound 0.0316 µM
  IC50: > 10 µM
Second compound 0.1 µM
  IC50: > 10 µM
Second compound 0.316 µM
  IC50: > 10 µM
Second compound 1 µM
  IC50: > 10 µM
Second compound 3.16 µM
  IC50: > 10 µM
Second compound 10 µM
  IC50: > 10 µM
[1]
  viability, T/C: 105%
[2]
  viability, T/C: 103%
Second compound 0.0316 µM, first compound 0.316 µM
  viability, T/C: 115%
Second compound 0.0316 µM, first compound 1 µM
  viability, T/C: 94.1%
Second compound 0.0316 µM, first compound 3.16 µM
  viability, T/C: 108%
Second compound 0.0316 µM, first compound 10 µM
  viability, T/C: 89%
[3]
  viability, T/C: 96.6%
[4]
  viability, T/C: 88.2%
Second compound 0.1 µM, first compound 0.316 µM
  viability, T/C: 97.6%
Second compound 0.1 µM, first compound 1 µM
  viability, T/C: 92.9%
Second compound 0.1 µM, first compound 3.16 µM
  viability, T/C: 105%
Second compound 0.1 µM, first compound 10 µM
  viability, T/C: 89.5%
[5]
  viability, T/C: 124%
[6]
  viability, T/C: 92.8%
Second compound 0.316 µM, first compound 0.316 µM
  viability, T/C: 77.1%
Second compound 0.316 µM, first compound 1 µM
  viability, T/C: 100%
Second compound 0.316 µM, first compound 3.16 µM
  viability, T/C: 80.6%
Second compound 0.316 µM, first compound 10 µM
  viability, T/C: 99.4%
[7]
  viability, T/C: 90.1%
[8]
  viability, T/C: 106%
Second compound 1 µM, first compound 0.316 µM
  viability, T/C: 91.9%
Second compound 1 µM, first compound 1 µM
  viability, T/C: 97.7%
Second compound 1 µM, first compound 3.16 µM
  viability, T/C: 85.7%
Second compound 1 µM, first compound 10 µM
  viability, T/C: 87%
[9]
  viability, T/C: 92.7%
[10]
  viability, T/C: 83.9%
Second compound 3.16 µM, first compound 0.316 µM
  viability, T/C: 91%
Second compound 3.16 µM, first compound 1 µM
  viability, T/C: 106%
Second compound 3.16 µM, first compound 3.16 µM
  viability, T/C: 106%
Second compound 3.16 µM, first compound 10 µM
  viability, T/C: 98.4%
[11]
  viability, T/C: 110%
[12]
  viability, T/C: 99.7%
Second compound 10 µM, first compound 0.316 µM
  viability, T/C: 96.3%
Second compound 10 µM, first compound 1 µM
  viability, T/C: 97.7%
Second compound 10 µM, first compound 3.16 µM
  viability, T/C: 77%
Second compound 10 µM, first compound 10 µM
  viability, T/C: 81.8%

## Cn1ncnc1[C@H]1c2n[nH]c(=O)c3cc(F)cc(c23)N[C@@H]1c1ccc(F)cc1 + Cc1cccc(N(C)C(=O)C2C(O)CCN2c2nc(C)cc(C(F)(F)F)c2C#N)c1
Second compound 0.0316 µM
  IC50: > 0.1 µM
Second compound 0.1 µM
  IC50: > 0.1 µM
Second compound 0.316 µM
  IC50: > 0.1 µM
Second compound 1 µM
  IC50: > 0.1 µM
Second compound 3.16 µM
  IC50: > 0.1 µM
Second compound 10 µM
  IC50: > 0.1 µM
Second compound 0.0316 µM, first compound 0.000316 µM
  viability, T/C: 88.2%
Second compound 0.0316 µM, first compound 0.001 µM
  viability, T/C: 93.7%
Second compound 0.0316 µM, first compound 0.00316 µM
  viability, T/C: 84.3%
Second compound 0.0316 µM, first compound 0.01 µM
  viability, T/C: 109%
[1]
  viability, T/C: 100%
[2]
  viability, T/C: 96.5%
Second compound 0.1 µM, first compound 0.000316 µM
  viability, T/C: 99.4%
Second compound 0.1 µM, first compound 0.001 µM
  viability, T/C: 104%
Second compound 0.1 µM, first compound 0.00316 µM
  viability, T/C: 85.4%
Second compound 0.1 µM, first compound 0.01 µM
  viability, T/C: 115%
[3]
  viability, T/C: 90%
[4]
  viability, T/C: 87.9%
Second compound 0.316 µM, first compound 0.000316 µM
  viability, T/C: 108%
Second compound 0.316 µM, first compound 0.001 µM
  viability, T/C: 99.2%
Second compound 0.316 µM, first compound 0.00316 µM
  viability, T/C: 99.1%
Second compound 0.316 µM, first compound 0.01 µM
  viability, T/C: 104%
[5]
  viability, T/C: 95.7%
[6]
  viability, T/C: 99.7%
Second compound 1 µM, first compound 0.000316 µM
  viability, T/C: 103%
Second compound 1 µM, first compound 0.001 µM
  viability, T/C: 122%
Second compound 1 µM, first compound 0.00316 µM
  viability, T/C: 89%
Second compound 1 µM, first compound 0.01 µM
  viability, T/C: 97.1%
[7]
  viability, T/C: 113%
[8]
  viability, T/C: 75.8%
Second compound 3.16 µM, first compound 0.000316 µM
  viability, T/C: 94.1%
Second compound 3.16 µM, first compound 0.001 µM
  viability, T/C: 96.7%
Second compound 3.16 µM, first compound 0.00316 µM
  viability, T/C: 85.2%
Second compound 3.16 µM, first compound 0.01 µM
  viability, T/C: 118%
[9]
  viability, T/C: 104%
[10]
  viability, T/C: 104%
Second compound 10 µM, first compound 0.000316 µM
  viability, T/C: 119%
Second compound 10 µM, first compound 0.001 µM
  viability, T/C: 104%
Second compound 10 µM, first compound 0.00316 µM
  viability, T/C: 101%
Second compound 10 µM, first compound 0.01 µM
  viability, T/C: 105%
[11]
  viability, T/C: 109%
[12]
  viability, T/C: 114%
